Results: paper PMC10353187, “Discovery of a new potent oxindole multi-kinase inhibitor among a series of designed 3-alkenyl-oxindoles with ancillary carbonic anhydrase inhibitory activity as antiproliferative agents” (BMC Chemistry, 2023)

Columns and labels:
hCA I = hCA I (Homo sapiens, UniProt P00915); assay: Stopped flow CO2 hydrase assay
LOX IMVI = assay: NCI-60 single-dose antiproliferative assay (SRB); type: cell-based; conditions: Homo sapiens, 10 μM single dose, Melanoma, read-out: Cell Growth inhibition Percent
Procedure, shortened: (§1)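 Single 10 μM dose, 48 h at 37 °C in RPMI 1640 with 5% FBS, cells seeded 24 h before dosing. TCA fixation, sulforhodamine B staining, absorbance 515 nm; percent growth derived against time-zero and untreated control plates, triplicate wells.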

SNB-75 = assay: NCI-60 single-dose antiproliferative assay (SRB); type: cell-based; conditions: Homo sapiens; 10 μM single dose; SNB-75, CNS cancer; read-out: Cell Growth inhibition Percent
Procedure, shortened: as §1

OVCAR-4 = assay: NCI-60 single-dose antiproliferative assay (SRB); type: cell-based; conditions: Homo sapiens; 10 μM single dose; OVCAR-4, Ovarian Cancer; read-out: Cell Growth inhibition Percent
Procedure, shortened: as §1

MCF7 = assay: NCI-60 single-dose antiproliferative assay (SRB); type: cell-based; conditions: Homo sapiens; 10 μM single dose; MCF7, Breast cancer; read-out: Cell Growth inhibition Percent
Procedure, shortened: as §1

SF-268 = assay: NCI-60 single-dose antiproliferative assay (SRB); type: cell-based; conditions: Homo sapiens; 10 μM single dose; SF-268, CNS cancer; read-out: Cell Growth inhibition Percent
Procedure, shortened: as §1

SR = assay: NCI-60 single-dose antiproliferative assay (SRB); type: cell-based; conditions: Homo sapiens, 10 μM single dose, Leukemia, read-out: Cell Growth inhibition Percent
Procedure, shortened: as §1

CAKI-1 = assay: NCI-60 single-dose antiproliferative assay (SRB); type: cell-based; conditions: Homo sapiens; 10 μM single dose; CAKI-1, Renal cancer; read-out: Cell Growth inhibition Percent
Procedure, shortened: as §1

NCI-H23 = assay: NCI-60 single-dose antiproliferative assay (SRB); type: cell-based; conditions: Homo sapiens; 10 μM single dose; NCI-H23, Non-small cell lung cancer; read-out: Cell Growth inhibition Percent
Procedure, shortened: (§2)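 Plating at 5000–40,000 cells/well by doubling time; 24 h preincubation; a time-zero plate fixed at drug addition. Compound added at 10 µM final, incubated 48 h. Protein stained with SRB, measured at 515 nm, and GI% derived from Tz, C and Ti.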

SK-MEL-5 = assay: NCI-60 single-dose antiproliferative assay (SRB); type: cell-based; conditions: Homo sapiens; 10 μM single dose; SK-MEL-5, Melanoma; read-out: Cell Growth inhibition Percent
Procedure, shortened: as §1

NCI-H226 = assay: NCI-60 single-dose antiproliferative assay (SRB); type: cell-based; conditions: Homo sapiens; 10 μM single dose; NCI-H226, Non-small cell lung cancer; read-out: Cell Growth inhibition Percent
Procedure, shortened: as §1

EKVX = assay: NCI-60 single-dose antiproliferative assay (SRB); type: cell-based; conditions: Homo sapiens, 10 μM single dose, Non-small cell lung cancer, read-out: Cell Growth inhibition Percent
Procedure, shortened: as §1

KM12 = assay: NCI-60 single-dose antiproliferative assay (SRB); type: cell-based; conditions: Homo sapiens; 10 μM single dose; KM12, Colon cancer; read-out: Cell Growth inhibition Percent
Procedure, shortened: as §2

IGROV1 = assay: NCI-60 single-dose antiproliferative assay (SRB); type: cell-based; conditions: Homo sapiens, IGROV-1; 10 μM single dose; IGROV1, Ovarian Cancer; read-out: Cell Growth inhibition Percent
Procedure, shortened: as §1

HOP-92 = assay: NCI-60 single-dose antiproliferative assay (SRB); type: cell-based; conditions: Homo sapiens; 10 μM single dose; HOP-92, Non-small cell lung cancer; read-out: Cell Growth inhibition Percent
Procedure, shortened: as §2

PC-3 = assay: NCI-60 single-dose antiproliferative assay (SRB); type: cell-based; conditions: Homo sapiens; 10 μM single dose; PC-3, Prostate cancer; read-out: Cell Growth inhibition Percent
Procedure, shortened: as §1

ACHN = assay: NCI-60 single-dose antiproliferative assay (SRB); type: cell-based; conditions: Homo sapiens, 10 μM single dose, Renal cancer, read-out: Cell Growth inhibition Percent
Procedure, shortened: as §1

MDA-MB-231/ATCC = assay: NCI-60 single-dose antiproliferative assay (SRB); type: cell-based; conditions: Homo sapiens, 10 μM single dose, Breast cancer, read-out: Cell Growth inhibition Percent
Procedure, shortened: as §1

hCA I, sequence (P00915 whole entry): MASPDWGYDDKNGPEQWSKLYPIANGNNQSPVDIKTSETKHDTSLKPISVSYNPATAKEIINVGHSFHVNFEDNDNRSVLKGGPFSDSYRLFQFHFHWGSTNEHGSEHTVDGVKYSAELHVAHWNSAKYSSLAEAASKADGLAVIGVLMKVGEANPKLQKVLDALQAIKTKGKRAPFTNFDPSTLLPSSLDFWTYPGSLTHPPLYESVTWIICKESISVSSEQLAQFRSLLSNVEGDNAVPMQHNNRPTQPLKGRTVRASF

O=C1Nc2ccccc2C1=CNc1ccc(C(=O)Nc2ccc(S(=O)(=O)Nc3ncccn3)cc2)cc1 [Compound 9b, 4-{[(2-Oxoindolin-3-ylidene)methyl]amino}-N-{4-[N-(pyrimidin-2-yl)sulfamoyl]phenyl}benzamide] showed a Ki (hCA I) greater than 10 µM, a melting point greater than 300 °C and an inhibition at 10 µM (LOX IMVI) of 7.22%. The inhibition at 10 µM (SNB-75) was 31.3%, the inhibition at 10 µM (OVCAR-4) was 7.67% and the inhibition at 10 µM (MCF7) was 4.97%. It also gave an inhibition at 10 µM (SF-268) of 3.48%, an inhibition at 10 µM (SR) of 9.02% and an inhibition at 10 µM (CAKI-1) of 27.6%. For the same molecule, the inhibition at 10 µM (NCI-H23) was 9.28%, the inhibition at 10 µM (SK-MEL-5) was 6.95% and the inhibition at 10 µM (NCI-H226) was 12.2%. It also gave an inhibition at 10 µM (EKVX) of 38.5%, an inhibition at 10 µM (KM12) of 43.9% and an inhibition at 10 µM (IGROV1) of 21.3%. For the same molecule, the inhibition at 10 µM (HOP-92) was 4.65%, the inhibition at 10 µM (PC-3) was 7.1% and the inhibition at 10 µM (ACHN) was 10.5%. The inhibition at 10 µM (MDA-MB-231/ATCC) was 3.83%.
